The assay has as its system human breast cancer cell MDA-MD-231. Kind of assay: Tumor growth of breast cancer cells injected subcutaneously in nude mice. The assay is classed as in vivo. To be noted: MDA-MD-231 in nude mice, intraperitoneal, SP-2 10 μg/kg twice a week, docetaxel 7.5 mg/kg once a week, up to 44 days. The protocol:
Materials and methods: Nude mice were injected subcutaneously with 5×10^6 human breast cancer cell MDA-MD-231 (cells expressing 90K). One group was injected by intraperitoneal route with phosphate buffer and served as a control. Other groups were treated by intraperitoneal route with SP-2 antibody at a dose of 10 μg/kg twice a week, or a control IgG at the same dose, or with docetaxel at a dose of 7.5 mg/kg once a week, or with a combination of SP-2 and docetaxel. Tumor growth was followed up by measuring lesion diameters up to 44 days after injection. Each group, control and treated, consisted of 8 animals.

As to `CC(=O)O[C@@]12CO[C@@H]1C[C@H](O)[C@@]1(C)C(=O)[C@H](O)C3=C(C)[C@@H](OC(=O)[C@H](O)[C@@H](NC(=O)OC(C)(C)C)c4ccccc4)C[C@@](O)([C@@H](OC(=O)c4ccccc4)[C@H]21)C3(C)C` [docetaxel], the “tumor growth in comparison with control group” value is recorded as “significantly reduced tumor growth”.

The values are drawn from patent US8679495B2, “Use of anti-90K monoclonal antibodies for the prevention and treatment of tumors and metastases thereof” (MediaPharma S.r.l., priority 2009, dated 2014).
